Reference: PubChem BioAssay AID1963832 (Molecular Pharmacology Branch, DTP, NCI, 2024)

Tested on: 885724-159-R-J1-PDC complex spheroid viability
Assay: Anticancer human tumor 885724-159-R-J1-PDC patient-derived pancreatic adenocarcinoma cell line growth inhibition [POLQ]
Conditions: for IC50: curve of first compound; for viability, T/C: stronger effect = lower value
Procedure: Multicellular complex tumor spheroid response to Polymerase (POL) inhibitors (novobiocin, ART-558, RP6685) in combination with a variety of drugs and investigational agents in selected tumor cell lines
The POL inhibitors (novobiocin, ART-558, and RP6685) were evaluated both individually and in combination with standard of care and investigational anticancer small molecules within a complex spheroid model of solid tumors. . Complex spheroids include a stromal component modeled by human endothelial cells (HUVEC) and fibroblasts modeled by human mesenchymal stem cells (MSCs). The concentration ranges selected for each drug and investigational agent were based upon clinically achievable concentrations if the clinical Cmax of the agent was known.
Compounds. The drugs and investigational agents: novobiocin (NSC847541), ART-558 (NSC835418), RP-6685 (NSC848927), peposertib (NSC802822), ceralasertib (NSC780249), elimusertib (NSC800525), camonsertib (NSC841442), AZD-1390 (NSC803789), olaparib (NSC753686), talazoparib (NSC767125), rucaparib (NSC756644), sotorasib (NSC818433), MRTX-1133 (NSC836407), SN-38 (NSC673596), topotecan (NSC609699), epotoside (NSC141540), doxorubicin (NSC123127), gemcitabine (NSC613327), 5-fluorouracil (NSC19893), paclitaxel (NSC125973), vemurafenib (NSC761431), MSA-2 (NSC828583), SN-011 (NSC837082), adavosertib (NSC754352), prexasertib (NSC758257), carboplatin (NSC241240) and oxaliplatin (NSC266046), were obtained from the National Cancer Institute (NCI) Developmental Therapeutics Program Chemical Repository (21). The FDA-approved anticancer drug set is available from the Developmental Therapeutics Program at https://dtp.cancer.gov/organization/dscb/obtaining/. […] The stock solutions were prepared in dimethyl sulfoxide (DMSO, Sigma-Aldrich, St. Louis, MO, cat. D2650), except for the platinum compounds which were prepared in saline (Quality Biological, Gaithersburg, MD, cat. 114-055-101), at 800-fold the tested concentration and stored at -70 degrees C prior to their use. All drugs and investigational agents were tested over a range starting from a high concentration at or near the clinical Cmax and decreasing in half-log increments. If the clinical Cmax for an agent had not been determined, the highest concentration tested was 10 microM, except for SN-38, which was tested at a high concentration of 1 microM.
Cell Culture. All cells were maintained in an incubator at 37 degrees C and 5% CO2 with 95% humidity. The PDC lines were cultured according to standard operating procedures established by the NCI PDMR (https://pdmr.cancer.gov). Table 3 of the manuscript, lists the cell lines along with the number of the three cell types plated to form the mct-spheroids and media for tumor cell growth. After thawing, all PDC lines, except 997537-175-T-J1-PDC and 415267-285-R-J2-PDC, were cultured in Matrigel-coated flasks prepared with a working solution of 1X Ham's F-12 nutrient mix, without supplementation (Thermo Fisher Scientific, cat. 11765054), 100 U/mL penicillin-streptomycin (Thermo Fisher Scientific, cat. 15140122), and 2.5% Matrigel (Corning Inc., Corning, NY, cat. 354248) for the first three passages. The two PDC lines 997537-175-T-J1-PDC and 415267-285-R-J2-PDC were cultured on uncoated flasks. The 857933-349-R-J2-PDC line was cultured in 6C/Colon 1B media containing advanced DMEM/F-12 (Thermo Fisher Scientific, cat. 12634028), 10 mM HEPES (Thermo Fisher Scientific, cat. 15630080), 1X GlutaMAX supplement (Thermo Fisher Scientific, cat. 35050061), 0.1 mg/mL primocin (InvivoGen, San Diego, CA, cat. ant-pm-2), 10% defined fetal bovine serum, heat inactivated (HyClone Laboratories Inc., Logan, UT, cat. SH30070.03HI), 50% L-WRN conditioned media (ATCC, cat. CRL-3276), 1.25 mM N-Acetyl-L-cysteine (Sigma-Aldrich, cat. A9165), 10 mM nicotinamide (Sigma-Aldrich, cat. N0636), 1X B-27 supplement (Thermo Fisher Scientific, cat. 17504044), 1X N-2 supplement (Thermo Fisher Scientific, cat. […]

[1] = second compound 0.0316 µM, first compound 0.0316 µM
[2] = second compound 0.0316 µM, first compound 0.1 µM
[3] = second compound 0.0316 µM, first compound 0.316 µM
[4] = second compound 0.0316 µM, first compound 1 µM
[5] = second compound 0.0316 µM, first compound 3.16 µM
[6] = second compound 0.0316 µM, first compound 10 µM
[7] = second compound 0.1 µM, first compound 0.0316 µM
[8] = second compound 0.1 µM, first compound 0.1 µM
[9] = second compound 0.1 µM, first compound 0.316 µM
[10] = second compound 0.1 µM, first compound 1 µM
[11] = second compound 0.1 µM, first compound 3.16 µM
[12] = second compound 0.1 µM, first compound 10 µM
[13] = second compound 0.316 µM, first compound 0.0316 µM
[14] = second compound 0.316 µM, first compound 0.1 µM
[15] = second compound 0.316 µM, first compound 0.316 µM
[16] = second compound 0.316 µM, first compound 1 µM
[17] = second compound 0.316 µM, first compound 3.16 µM
[18] = second compound 0.316 µM, first compound 10 µM
[19] = second compound 1 µM, first compound 0.0316 µM
[20] = second compound 1 µM, first compound 0.1 µM
[21] = second compound 1 µM, first compound 0.316 µM
[22] = second compound 1 µM, first compound 1 µM
[23] = second compound 1 µM, first compound 3.16 µM
[24] = second compound 1 µM, first compound 10 µM
[25] = second compound 3.16 µM, first compound 0.0316 µM
[26] = second compound 3.16 µM, first compound 0.1 µM
[27] = second compound 3.16 µM, first compound 0.316 µM
[28] = second compound 3.16 µM, first compound 1 µM
[29] = second compound 3.16 µM, first compound 3.16 µM
[30] = second compound 3.16 µM, first compound 10 µM
[31] = second compound 10 µM, first compound 0.0316 µM
[32] = second compound 10 µM, first compound 0.1 µM
[33] = second compound 10 µM, first compound 0.316 µM
[34] = second compound 10 µM, first compound 1 µM
[35] = second compound 10 µM, first compound 3.16 µM
[36] = second compound 10 µM, first compound 10 µM
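Note: spheroids exposed to compounds for 7 days.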

## CC(=O)O[C@H]1C(=O)[C@@]2(C)[C@H]([C@H](OC(=O)c3ccccc3)[C@]3(O)C[C@H](OC(=O)[C@H](O)[C@@H](NC(=O)c4ccccc4)c4ccccc4)C(C)=C1C3(C)C)[C@]1(OC(C)=O)CO[C@@H]1C[C@@H]2O + Nc1ccc(C#CCN(C(=O)Cc2ncc(C(F)(F)F)cc2C(F)(F)F)c2ccc(F)cc2)nn1
Second compound 0.0316 µM
  IC50: > 3 µM
Second compound 0.1 µM
  IC50: > 3 µM
Second compound 0.316 µM
  IC50: > 3 µM
Second compound 1 µM
  IC50: > 3 µM
Second compound 3.16 µM
  IC50: > 3 µM
Second compound 10 µM
  IC50: > 3 µM
Second compound 0.0316 µM, first compound 0.00949 µM
  viability, T/C: 65.9%
Second compound 0.0316 µM, first compound 0.03 µM
  viability, T/C: 59.9%
Second compound 0.0316 µM, first compound 0.0949 µM
  viability, T/C: 56.6%
Second compound 0.0316 µM, first compound 0.3 µM
  viability, T/C: 64.7%
Second compound 0.0316 µM, first compound 0.949 µM
  viability, T/C: 62.5%
Second compound 0.0316 µM, first compound 3 µM
  viability, T/C: 70.3%
Second compound 0.1 µM, first compound 0.00949 µM
  viability, T/C: 69.9%
Second compound 0.1 µM, first compound 0.03 µM
  viability, T/C: 61.7%
Second compound 0.1 µM, first compound 0.0949 µM
  viability, T/C: 62.5%
Second compound 0.1 µM, first compound 0.3 µM
  viability, T/C: 69.1%
Second compound 0.1 µM, first compound 0.949 µM
  viability, T/C: 70%
Second compound 0.1 µM, first compound 3 µM
  viability, T/C: 68.9%
Second compound 0.316 µM, first compound 0.00949 µM
  viability, T/C: 71.8%
Second compound 0.316 µM, first compound 0.03 µM
  viability, T/C: 60.4%
Second compound 0.316 µM, first compound 0.0949 µM
  viability, T/C: 68%
Second compound 0.316 µM, first compound 0.3 µM
  viability, T/C: 58.1%
Second compound 0.316 µM, first compound 0.949 µM
  viability, T/C: 71.2%
Second compound 0.316 µM, first compound 3 µM
  viability, T/C: 74%
Second compound 1 µM, first compound 0.00949 µM
  viability, T/C: 63.4%
Second compound 1 µM, first compound 0.03 µM
  viability, T/C: 61.5%
Second compound 1 µM, first compound 0.0949 µM
  viability, T/C: 58.6%
Second compound 1 µM, first compound 0.3 µM
  viability, T/C: 63%
Second compound 1 µM, first compound 0.949 µM
  viability, T/C: 70.2%
Second compound 1 µM, first compound 3 µM
  viability, T/C: 69.5%
Second compound 3.16 µM, first compound 0.00949 µM
  viability, T/C: 64.8%
Second compound 3.16 µM, first compound 0.03 µM
  viability, T/C: 66.5%
Second compound 3.16 µM, first compound 0.0949 µM
  viability, T/C: 61.9%
Second compound 3.16 µM, first compound 0.3 µM
  viability, T/C: 60%
Second compound 3.16 µM, first compound 0.949 µM
  viability, T/C: 68.3%
Second compound 3.16 µM, first compound 3 µM
  viability, T/C: 75%
Second compound 10 µM, first compound 0.00949 µM
  viability, T/C: 67.4%
Second compound 10 µM, first compound 0.03 µM
  viability, T/C: 59.2%
Second compound 10 µM, first compound 0.0949 µM
  viability, T/C: 66.2%
Second compound 10 µM, first compound 0.3 µM
  viability, T/C: 70%
Second compound 10 µM, first compound 0.949 µM
  viability, T/C: 75.3%
Second compound 10 µM, first compound 3 µM
  viability, T/C: 71.8%

## CCCS(=O)(=O)Nc1ccc(F)c(C(=O)c2c[nH]c3ncc(-c4ccc(Cl)cc4)cc23)c1F + Nc1ccc(C#CCN(C(=O)Cc2ncc(C(F)(F)F)cc2C(F)(F)F)c2ccc(F)cc2)nn1
Second compound 0.0316 µM
  IC50: > 10 µM
Second compound 0.1 µM
  IC50: > 10 µM
Second compound 0.316 µM
  IC50: > 10 µM
Second compound 1 µM
  IC50: > 10 µM
Second compound 3.16 µM
  IC50: > 10 µM
Second compound 10 µM
  IC50: > 10 µM
[1]
  viability, T/C: 93.2%
[2]
  viability, T/C: 95.2%
[3]
  viability, T/C: 115%
[4]
  viability, T/C: 128%
[5]
  viability, T/C: 147%
[6]
  viability, T/C: 97.6%
[7]
  viability, T/C: 105%
[8]
  viability, T/C: 107%
[9]
  viability, T/C: 109%
[10]
  viability, T/C: 137%
[11]
  viability, T/C: 153%
[12]
  viability, T/C: 97.5%
[13]
  viability, T/C: 99.4%
[14]
  viability, T/C: 110%
[15]
  viability, T/C: 118%
[16]
  viability, T/C: 134%
[17]
  viability, T/C: 147%
[18]
  viability, T/C: 94.1%
[19]
  viability, T/C: 95.6%
[20]
  viability, T/C: 101%
[21]
  viability, T/C: 116%
[22]
  viability, T/C: 132%
[23]
  viability, T/C: 148%
[24]
  viability, T/C: 95%
[25]
  viability, T/C: 90.8%
[26]
  viability, T/C: 103%
[27]
  viability, T/C: 109%
[28]
  viability, T/C: 144%
[29]
  viability, T/C: 146%
[30]
  viability, T/C: 85%
[31]
  viability, T/C: 96.8%
[32]
  viability, T/C: 109%
[33]
  viability, T/C: 133%
[34]
  viability, T/C: 137%
[35]
  viability, T/C: 135%
[36]
  viability, T/C: 94.5%

## CNCc1ccc(-c2[nH]c3cc(F)cc4c3c2CCNC4=O)cc1 + Nc1ccc(C#CCN(C(=O)Cc2ncc(C(F)(F)F)cc2C(F)(F)F)c2ccc(F)cc2)nn1
Second compound 0.0316 µM
  IC50: > 10 µM
Second compound 0.1 µM
  IC50: > 10 µM
Second compound 0.316 µM
  IC50: > 10 µM
Second compound 1 µM
  IC50: > 10 µM
Second compound 3.16 µM
  IC50: > 10 µM
Second compound 10 µM
  IC50: > 10 µM
[1]
  viability, T/C: 89%
[2]
  viability, T/C: 93%
[3]
  viability, T/C: 87.5%
[4]
  viability, T/C: 91%
[5]
  viability, T/C: 92.3%
[6]
  viability, T/C: 91.1%
[7]
  viability, T/C: 101%
[8]
  viability, T/C: 88.3%
[9]
  viability, T/C: 92.5%
[10]
  viability, T/C: 94.2%
[11]
  viability, T/C: 89.9%
[12]
  viability, T/C: 85.6%
[13]
  viability, T/C: 95.5%
[14]
  viability, T/C: 81.1%
[15]
  viability, T/C: 85.9%
[16]
  viability, T/C: 89.8%
[17]
  viability, T/C: 96.5%
[18]
  viability, T/C: 92.7%
[19]
  viability, T/C: 88.7%
[20]
  viability, T/C: 101%
[21]
  viability, T/C: 89.7%
[22]
  viability, T/C: 85.7%
[23]
  viability, T/C: 88.7%
[24]
  viability, T/C: 83.4%
[25]
  viability, T/C: 100%
[26]
  viability, T/C: 96.8%
[27]
  viability, T/C: 96.6%
[28]
  viability, T/C: 88.6%
[29]
  viability, T/C: 98.3%
[30]
  viability, T/C: 81.9%
[31]
  viability, T/C: 92%
[32]
  viability, T/C: 92.2%
[33]
  viability, T/C: 98.8%
[34]
  viability, T/C: 91.5%
[35]
  viability, T/C: 92.2%
[36]
  viability, T/C: 91.7%
